Results taken from patent US10709690B2, “Combination therapy with nitrated lipids and inhibitors of the renin-angiotensin-aldosterone system” (THE UNIVERSITY OF UTAH RESEARCH FOUNDATION, priority 2011, dated 2020).

Legend:
Type in all cases: in vivo
[1] = test system: renal heme oxygenase-1 (HO-1) protein; experiment: Renal heme oxygenase-1 protein expression in db/db mice by immunoblotting; settings: 12 days; for changes of renal HO-1 protein expression relative to the vehicle group: OA-NO2 10 mg/kg/d via osmotic mini-pump, losartan via diet
Experimental: Lean mice (non-diabetic) with vehicle treatment were used as controls. Renal HO-1 protein was analyzed by using immunoblotting. […] Male 3-4-month-old db/db mice were from Jackson Laboratories (Bar Harbor, Me.). All animals were housed in an air-conditioned room with a 12-hour light/dark cycle. All procedures and protocols were in accordance with guidelines set by the Laboratory Animal Care Committee at the University of Utah. 9-Nitrooleic acid and 10-nitrooleic acid are two regioisomers of nitrooleic acid (OA-NO2), which are formed by nitration of oleic acid in approximately equal proportions ([…] et al. Chemistry Letters pp. 1109-1112, 1982). The two compounds were purchased from Cayman Chemicals (Ann Arbor, Mich.) (9-nitrooleic acid: Cat #10008042; 10-nitrooleic acid: Cat #10008043) and used as an 1:1 mixture of the isomers. db/db mice were implanted with a 3-week osmotic mini-pump which delivered a vehicle or OA-NO2 at 10 mg/kg/d. Animals were fed with losartan, which is an AT1 blocker. 24-h urine samples were collected before and after the treatment. Renal HO-1 expression was examined using immunoblotting.

[2] = test system: db/db mice; experiment: Urinary TBARS in db/db mice, 12-day treatment; settings: OA-NO2 10 mg/kg/d via osmotic mini-pump, losartan via diet; for effect on urinary TBARS (in words): 12 days; for changes of urinary TBARS relative to the vehicle group: after 12 days
Experimental: FIG. 2 is a bar graph comparing the amounts of urinary thiobarbituric acid reactive substances (TBARS) in db/db mice before and after 12-d infusion with vehicle, losartan, nitrooleic acid (OA-NO2), or losartan+OA-NO2. Lean mice (non-diabetic) with vehicle treatment were used as controls. Losartan was administered via diet, while vehicle and OA-NO2 were each infused via osmotic mini-pump. Lean: n=5; vehicle: n=10; losartan: n=8; OA-NO2: n=9; losartan+OA-NO2: n=10. Data are mean±SE. Male 3-4-month-old db/db mice were from Jackson Laboratories (Bar Harbor, Me.). All animals were housed in an air-conditioned room with a 12-hour light/dark cycle. All procedures and protocols were in accordance with guidelines set by the Laboratory Animal Care Committee at the University of Utah. 9-Nitrooleic acid and 10-nitrooleic acid are two regioisomers of nitrooleic acid (OA-NO2), which are formed by nitration of oleic acid in approximately equal proportions ([…] et al. Chemistry Letters pp. 1109-1112, 1982). The two compounds were purchased from Cayman Chemicals (Ann Arbor, Mich.) (9-nitrooleic acid: Cat #10008042; 10-nitrooleic acid: Cat #10008043) and used as an 1:1 mixture of the isomers. db/db mice were implanted with a 3-week osmotic mini-pump which delivered a vehicle or OA-NO2 at 10 mg/kg/d. Animals were fed with losartan, which is an AT1 blocker. 24-h urine samples were collected before and after the treatment.

[3] = test system: db/db mice; experiment: Urinary albumin in db/db mice, 12-day treatment; settings: 12-day study, OA-NO2 10 mg/kg/d via osmotic mini-pump, losartan via diet; for changes of urinary albumin relative to the vehicle group: + increase, − decrease in albuminuria
Experimental: FIG. 1 is a bar graph comparing the amounts of urinary albumin in db/db mice before and after a 12 day (12-d) administration of vehicle, losartan, nitrooleic acid (OA-NO2), or losartan+OA-NO2. Lean mice (non-diabetic) with vehicle treatment were used as controls. losartan was administered via diet, while OA-NO2 and vehicle were each infused via osmotic mini-pump. Lean: n=5; vehicle: n=10; losartan: n=8; OA-NO2: n=9; losartan+OA-NO2: n=10. Data are mean±SE. Male 3-4-month-old db/db mice were from Jackson Laboratories (Bar Harbor, Me.). All animals were housed in an air-conditioned room with a 12-hour light/dark cycle. All procedures and protocols were in accordance with guidelines set by the Laboratory Animal Care Committee at the University of Utah. 9-Nitrooleic acid and 10-nitrooleic acid are two regioisomers of nitrooleic acid (OA-NO2), which are formed by nitration of oleic acid in approximately equal proportions ([…] et al. Chemistry Letters pp. 1109-1112, 1982). The two compounds were purchased from Cayman Chemicals (Ann Arbor, Mich.) (9-nitrooleic acid: Cat #10008042; 10-nitrooleic acid: Cat #10008043) and used as an 1:1 mixture of the isomers. db/db mice were implanted with a 3-week osmotic mini-pump which delivered a vehicle or OA-NO2 at 10 mg/kg/d. Animals were fed with losartan, which is an AT1 blocker. 24-h urine samples were collected before and after the treatment. […] The plus symbol (+) means an increase and the minus symbol (-) indicates a decrease in albuminuria.

[4] = test system: renal COX-2 protein; experiment: Renal COX-2 protein expression in db/db mice by immunoblotting; settings: 12 days; for changes of renal COX-2 protein expression relative to the vehicle group: OA-NO2 10 mg/kg/d via osmotic mini-pump, losartan via diet
Experimental: Lean mice (non-diabetic) with vehicle treatment were used as controls. Renal COX-2 protein was analyzed by using immunoblotting.
Male 3-4-month-old db/db mice were from Jackson Laboratories (Bar Harbor, Me.). All animals were housed in an air-conditioned room with a 12-hour light/dark cycle. All procedures and protocols were in accordance with guidelines set by the Laboratory Animal Care Committee at the University of Utah.
9-Nitrooleic acid and 10-nitrooleic acid are two regioisomers of nitrooleic acid (OA-NO2), which are formed by nitration of oleic acid in approximately equal proportions (Hayama et al. Chemistry Letters pp. 1109-1112, 1982). The two compounds were purchased from Cayman Chemicals (Ann Arbor, Mich.) (9-nitrooleic acid: Cat #10008042; 10-nitrooleic acid: Cat #10008043) and used as an 1:1 mixture of the isomers.
db/db mice were implanted with a 3-week osmotic mini-pump which delivered a vehicle or OA-NO2 at 10 mg/kg/d. Animals were fed with losartan, which is an AT1 blocker. 24-h urine samples were collected before and after the treatment.
Renal COX-2 expression in db/db mice treated as above was examined by immunoblotting.

[5] = test system: db/db mice; experiment: Renal TBARS in db/db mice, 12-day treatment; settings: 12 days, OA-NO2 10 mg/kg/d via osmotic mini-pump, losartan via diet
Excerpt: Lean mice (non-diabetic) with vehicle treatment were used as controls. […] Lean: n=5; vehicle: n=10; losartan: n=8; OA-NO2: n=9; losartan+OA-NO2: n=10. Data are mean±SE. Male 3-4-month-old db/db mice were from Jackson Laboratories (Bar Harbor, Me.). All animals were housed in an air-conditioned room with a 12-hour light/dark cycle. All procedures and protocols were in accordance with guidelines set by the Laboratory Animal Care Committee at the University of Utah. 9-Nitrooleic acid and 10-nitrooleic acid are two regioisomers of nitrooleic acid (OA-NO2), which are formed by nitration of oleic acid in approximately equal proportions ([…] et al. Chemistry Letters pp. 1109-1112, 1982). The two compounds were purchased from Cayman Chemicals (Ann Arbor, Mich.) (9-nitrooleic acid: Cat #10008042; 10-nitrooleic acid: Cat #10008043) and used as an 1:1 mixture of the isomers. db/db mice were implanted with a 3-week osmotic mini-pump which delivered a vehicle or OA-NO2 at 10 mg/kg/d. Animals were fed with losartan, which is an AT1 blocker. 24-h urine samples were collected before and after the treatment.

nitrooleic acid [OA-NO2]
effect on renal HO-1 expression (in words) [1]: elevated
changes of renal HO-1 protein expression relative to the vehicle group [1]: +48.8%
effect on urinary TBARS (in words) [2]: without an effect
changes of urinary TBARS relative to the vehicle group [2]: +16.5%
effect on urinary albumin excretion (in words) [3]: Neither losartan or OA-NO2 alone exhibited a statistically significant effect
changes of urinary albumin relative to the vehicle group [3]: −13%
effect on renal COX-2 expression (in words) [4]: modest effect
changes of renal COX-2 protein expression relative to the vehicle group [4]: −14.8%
effect on renal TBARS content (in words) [5]: trend of reduction but none of these changes reached statistical significance

CCCCc1nc(Cl)c(CO)n1Cc1ccc(-c2ccccc2-c2nn[nH]n2)cc1 [losartan]
effect on renal HO-1 expression (in words) [1]: elevated
changes of renal HO-1 protein expression relative to the vehicle group [1]: +97.6%
effect on urinary TBARS (in words) [2]: without an effect
changes of urinary TBARS relative to the vehicle group [2]: +33.4%
effect on urinary albumin excretion (in words) [3]: Neither losartan or OA-NO2 alone exhibited a statistically significant effect
changes of urinary albumin relative to the vehicle group [3]: +7%
effect on renal COX-2 expression (in words) [4]: modest effect
changes of renal COX-2 protein expression relative to the vehicle group [4]: −5.3%
effect on renal TBARS content (in words) [5]: trend of reduction but none of these changes reached statistical significance
